US20250161307A1, “PYRAZOLOPYRIMIDINES AS MODULATORS OF SPERMINE OXIDASE” (Janssen Pharmaceutica NV, priority 2022, published 2025)
pIC50: −log10 of the molar value. Where a name gives a salt, the structure may show the parent alone.

Tests used:
SMOX [1] = molecular target: T1, SMOX (Homo sapiens (Human), UniProt Q9NWM0); assay: Cellular Thermal Shift Assay (CETSA) with alphaLISA detection of intact SMOX in A549 cells; assay type: cell-based; conditions: 1 hour compound incubation at 37° C., heated to 55° C. for 5 minutes
T1 sequence (Q9NWM0 whole entry): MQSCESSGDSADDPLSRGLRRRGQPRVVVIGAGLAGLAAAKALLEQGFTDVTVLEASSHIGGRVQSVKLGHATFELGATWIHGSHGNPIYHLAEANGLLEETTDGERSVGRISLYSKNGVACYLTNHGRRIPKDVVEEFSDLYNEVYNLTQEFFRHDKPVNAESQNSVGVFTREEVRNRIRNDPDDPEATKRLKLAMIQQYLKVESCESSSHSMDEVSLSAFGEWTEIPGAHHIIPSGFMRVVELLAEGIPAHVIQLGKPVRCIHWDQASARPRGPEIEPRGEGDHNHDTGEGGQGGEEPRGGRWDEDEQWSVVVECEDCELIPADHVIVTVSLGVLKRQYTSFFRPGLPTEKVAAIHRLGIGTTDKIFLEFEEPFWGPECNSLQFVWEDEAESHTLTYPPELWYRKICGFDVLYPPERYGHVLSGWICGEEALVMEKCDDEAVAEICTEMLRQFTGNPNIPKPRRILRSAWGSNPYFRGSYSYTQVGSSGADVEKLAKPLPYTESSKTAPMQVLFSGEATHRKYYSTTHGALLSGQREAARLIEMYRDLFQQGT
Excerpt: The Cellular Thermal Shift Assay (CETSA) is a biophysical assay based on the principle of ligand-induced thermal stabilization of target proteins, meaning that a protein denaturing temperature will change upon ligand interaction. Thus, by heating samples (i.e. cells, ex vivo samples) to different temperatures, and quantifying conformationally intact proteins we can detect compound-protein interactions after compound treatment. CETSA allows direct monitoring of ligand binding to a specific target (target engagement). In our study, we have developed a suitable detection system that will detect intact SMOX using the alphaLISA. […] The detection of compound -SMOX ligand binding is performed using A549 cells. This adenocarcinoma human alveolar basal epithelial cell line expresses high levels of SMOX. Their use has been widely reported in the literature with respect to the investigation of the SMOX pathway. Using SMOX high-expressing cells with CETSA and alphaLISA systems provides the optimal platform for screening small molecules for SMOX inhibition.
A549 cells were seeded at a density of 0.05-0.1×10^6 cells/mL in T175 flasks and cultured in 25 mL of culture medium consisting in RPMI 1640 medium (Gibco) supplemented with 10% fetal bovine serum (Gibco). Cells were passaged twice per week and used for CETSA assays before reaching confluency. One day prior to the CETSA cells were seeded in 384-well white assay plates (Corning) at 15000 cells per well. Briefly, cells were washed with PBS (Life Technologies Europe BV) and dissociated by adding 2 mL TrypLE™ Select (Life Technologies Europe BV). After 5 min at 37° C., cells were resuspended in culture medium, counted using a ViCell XR cell counter (ViCell) and seeded in the 384-well plates.
Compounds were pre-diluted in PBS to a final concentration of […] and 1% DMSO and serially diluted in PBS 1% DMSO. For compound-cell incubation, medium in the 384 well plates was replaced with 30 μL of serially diluted compounds. After incubation at 37° C. for 1 hour the liquid was removed and plates were heated to 55° C. for 5 minutes and then transferred to ice for 5 minutes. After the cooling step, cells were lysed by adding 15 μL 1× alphaLISA-buffer (Perkin Elmer) containing anti-SMOX monoclonal antibody #2 and anti-SMOX Fab-fragment #33 mixture at a concentration of 5 and 0.5 nM respectively. After one hour at RT, 5 μL anti-6×His alphaLISA acceptor beads (50 mg/L, AL128C, Perkin Elmer) were added to the wells followed by an additional incubation of one hour at RT. Then 5 μL anti-rabbit IgG alpha donor beads (200 mg/L was added to the wells. After one hour incubation at RT the alpha signal was read using an alpha compatible reader. MDL75257 (M2949, Sigma) was used as positive control for compound-SMOX interaction. Compound-SMOX interaction is detected through the comparison of the high alpha signal of the negative control with the much lower signal of the wells that contain SMOX binding compounds.

hPAOX = hPAOX (Homo sapiens (Human), UniProt Q6QHF9); assay: Human PAOX assay (HyPerBlu chemiluminescent detection of hydrogen peroxide); assay type: biochemical; conditions: 60 pM recombinant PAOX, 20 μM N-acetylspermine substrate
Sequence of hPAOX (Q6QHF9 whole entry): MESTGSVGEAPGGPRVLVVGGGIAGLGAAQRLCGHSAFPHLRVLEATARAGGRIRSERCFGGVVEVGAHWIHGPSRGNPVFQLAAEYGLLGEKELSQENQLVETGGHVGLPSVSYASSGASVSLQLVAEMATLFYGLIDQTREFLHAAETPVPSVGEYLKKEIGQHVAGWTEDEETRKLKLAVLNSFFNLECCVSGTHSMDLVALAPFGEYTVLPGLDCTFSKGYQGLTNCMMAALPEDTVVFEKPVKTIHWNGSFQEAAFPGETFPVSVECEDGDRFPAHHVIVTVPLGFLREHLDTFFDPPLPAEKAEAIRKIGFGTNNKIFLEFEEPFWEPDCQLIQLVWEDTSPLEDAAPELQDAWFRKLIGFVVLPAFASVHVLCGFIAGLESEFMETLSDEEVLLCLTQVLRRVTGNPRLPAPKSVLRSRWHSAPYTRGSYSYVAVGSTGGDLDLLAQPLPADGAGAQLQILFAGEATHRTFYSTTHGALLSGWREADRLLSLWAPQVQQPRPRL
How it was run: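 His-tagged recombinant PAOX expressed in sf9 insect cells was used at 60 pM, with 20 μM N-acetylspermine as substrate. Hydrogen peroxide formed by the reaction was detected by chemiluminescence from a boronate probe (HyPerBlu). Inhibition appears as lower luminescence.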

SMOX [2] = molecular target: T1, SMOX; assay: Human SMOX assay (HyPerBlu chemiluminescent detection of hydrogen peroxide); assay type: biochemical; conditions: 2.5 nM full length hSMOX, spermine substrate, 1 h at room temperature, luminescence read; read-out: SMOx_IC50
How it was run: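 Full-length N-His human SMOX (2.5 nM, E. coli-expressed) was incubated 1 h at room temperature with 30 µM spermine, 11-point compound dilutions and 1.25% DMSO in pH 7.4 HEPES/NaCl/EGTA buffer. H2O2 was detected by HyPerBlu chemiluminescence after 30 min, and IC50 came from dose–response fits.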

[3] = associated disease models; cited from earlier work
[4] = animal cancer models; cited from earlier work

Row | Structure (SMILES) | SMOx % recovery CETSA (SMOX [1]) [%] | pIC50 (hPAOX) | pIC50 (SMOX [2]) | neuronal death and retinal degeneration [3] | cancer incidence [4]
1 | CN1CCC(CNC(=O)c2cc3nc(-c4ccccc4)cc(-c4ccccc4)n3n2)C1 (centres unmarked) [Example 19, N-((1-Methylpyrrolidin-3-yl)methyl)-5,7-diphenylpyrazolo[1,5-a]pyrimidine-2-carboxamide] | 2 | 6.51 | 6.80 | – | –
2 | O=C(NCC1CCc2nccn2C1)c1cc2nc(-c3ccccc3)cc(-c3ccccc3)n2n1 (centres unmarked) [Example 20, 5,7-Diphenyl-N-((5,6,7,8-tetrahydroimidazo[1,2-a]pyridin-6-yl)methyl)pyrazolo[1,5-a]pyrimidine-2-carboxamide] | 10 | 6.51 | 7.19 | – | –
3 | CN1CCC(C)(CNC(=O)c2cc3nc(-c4ccccc4)cc(-c4ccccc4)n3n2)C1 (centres unmarked) [Example 21, N-((1,3-Dimethylpyrrolidin-3-yl)methyl)-5,7-diphenylpyrazolo[1,5-a]pyrimidine-2-carboxamide] | 2 | 5.07 | 6.93 | – | –
4 | CN1CC(NC(=O)c2cc3nc(-c4ccccc4)cc(-c4ccccc4)n3n2)C1 [Example 23, N-(1-Methylazetidin-3-yl)-5,7-diphenylpyrazolo[1,5-a]pyrimidine-2-carboxamide] | 52 | 6.02 | 7.31 | – | –
5 | O=C(NCCCc1c[nH]cn1)c1cc2nc(-c3ccccc3)cc(-c3ccccc3)n2n1 [Example 27, N-(3-(1H-Imidazol-4-yl)propyl)-5,7-diphenylpyrazolo[1,5-a]pyrimidine-2-carboxamide] | 43 | 7.31 | 7.82 | – | –
6 | O=C(NCCCn1ccnc1)c1cc2nc(-c3ccccc3)cc(-c3ccccc3)n2n1 [Example 43, N-(3-(1H-Imidazol-1-yl)propyl)-5,7-diphenylpyrazolo[1,5-a]pyrimidine-2-carboxamide] | 74 | 6.13 | 8.00 | – | –
7 | CC(C)Nc1cc(-c2ccccc2)nc2cc(C(=O)NCCCn3ccnc3)nn12 [Example 57, N-(3-(1H-Imidazol-1-yl)propyl)-7-(isopropylamino)-5-phenylpyrazolo[1,5-a]pyrimidine-2-carboxamide] | 1 | 5.35 | 6.75 | – | –
8 | O=C(NCCCn1ccnc1)c1cc2nc(-c3ccccc3)cc(N3CCCCC3)n2n1 [Example 58, N-(3-(1H-Imidazol-1-yl)propyl)-5-phenyl-7-(piperidin-1-yl)pyrazolo[1,5-a]pyrimidine-2-carboxamide] | 29 | 5.16 | 7.62 | – | –
9 | O=C(NCCCn1ccnc1)c1cc2nc(-c3ccccc3)cc(N3CCCC(F)C3)n2n1 (centres unmarked) [Example 62, N-(3-(1H-Imidazol-1-yl)propyl)-7-(3-fluoropiperidin-1-yl)-5-phenylpyrazolo[1,5-a]pyrimidine-2-carboxamide] | 87 | 5.22 | 7.31 | – | –
10 | O=C(NCCCn1ccnc1)c1cc2nc(-c3ccccc3)cc(N3CCC(F)CC3)n2n1 [Example 63, N-(3-(1H-Imidazol-1-yl)propyl)-7-(4-fluoropiperidin-1-yl)-5-phenylpyrazolo[1,5-a]pyrimidine-2-carboxamide] | 6 | 5.63 | 6.62 | – | –
11 | CN1CC(NC(=O)c2cc3nc(-c4ccccc4)cc(N4CCCCC4)n3n2)C1 [Example 68, N-(1-methylazetidin-3-yl)-5-phenyl-7-(piperidin-1-yl)pyrazolo[1,5-a]pyrimidine-2-carboxamide trifluoroacetate] | 39 | 5.23 | 6.83 | – | –
12 | O=C(NCCCn1ccnc1)c1cc2nc(-c3ccccc3)cc(-c3cccc(F)c3)n2n1 [Example 78, N-(3-(1H-imidazol-1-yl)propyl)-7-(3-fluorophenyl)-5-phenylpyrazolo[1,5-a]pyrimidine-2-carboxamide] | 0 | 5.85 | 7.44 | – | –
13 | Cc1cccc(-c2cc(-c3ccccc3)nc3cc(C(=O)NCCCn4ccnc4)nn23)c1 [Example 81, N-(3-(1H-imidazol-1-yl)propyl)-5-phenyl-7-(m-tolyl)pyrazolo[1,5-a]pyrimidine-2-carboxamide] | 0 | 6.91 | 6.91 | – | –
14 | O=C(NCCCn1ccnc1)c1cc2nc(-c3ccccc3)cc(-c3ccc(F)cc3)n2n1 [Example 86, N-(3-(1H-imidazol-1-yl)propyl)-7-(4-fluorophenyl)-5-phenylpyrazolo[1,5-a]pyrimidine-2-carboxamide] | 40 | 5.66 | 7.62 | – | –
15 | O=C(NCCCn1ccnc1)c1cc2nc(-c3ccccc3)cc(-c3ccc(O)cc3)n2n1 [Example 88, N-(3-(1H-imidazol-1-yl)propyl)-7-(4-hydroxyphenyl)-5-phenylpyrazolo[1,5-a]pyrimidine-2-carboxamide] | 0 | 5.81 | 6.99 | – | –
16 | N#Cc1cccc(-c2cc(-c3ccccc3)nc3cc(C(=O)NCCCn4ccnc4)nn23)c1 [Example 89, N-(3-(1H-imidazol-1-yl)propyl)-7-(3-cyanophenyl)-5-phenylpyrazolo[1,5-a]pyrimidine-2-carboxamide] | 0 | 6.06 | 6.80 | – | –
17 | N#Cc1ccc(-c2cc(-c3ccccc3)nc3cc(C(=O)NCCCn4ccnc4)nn23)cc1 [Example 90, N-(3-(1H-imidazol-1-yl)propyl)-7-(4-cyanophenyl)-5-phenylpyrazolo[1,5-a]pyrimidine-2-carboxamide] | 3 | 5.79 | 7.11 | – | –
18 | O=C(NCCCn1ccnc1)c1cc2nc(-c3ccccc3)cc(-c3ccccn3)n2n1 [Example 91, N-(3-(1H-imidazol-1-yl)propyl)-5-phenyl-7-(pyridin-2-yl)pyrazolo[1,5-a]pyrimidine-2-carboxamide] | 111 | 5.69 | 7.37 | – | –
19 | CN1CC(NC(=O)c2cc3nc(-c4ccccc4)cc(-c4ccccn4)n3n2)C1 [Example 92, N-(1-methylazetidin-3-yl)-5-phenyl-7-(pyridin-2-yl)pyrazolo[1,5-a]pyrimidine-2-carboxamide] | 20 | 6.28 | 6.62 | – | –
20 | O=C(NCCCn1ccnc1)c1cc2nc(-c3ccccc3)cc(C3CCCCC3)n2n1 [Example 107, N-(3-(1H-imidazol-1-yl)propyl)-7-cyclohexyl-5-phenylpyrazolo[1,5-a]pyrimidine-2-carboxamide] | 24 | 5.90 | 7.66 | – | –
21 | O=C(NCCCn1ccnc1)c1cc2nc(-c3ccccc3)cc(C3CCCCO3)n2n1 (centres unmarked) [Example 111, N-(3-(1H-imidazol-1-yl)propyl)-5-phenyl-7-(tetrahydro-2H-pyran-2-yl)pyrazolo[1,5-a]pyrimidine-2-carboxamide] | 52 | 5.53 | 7.24 | – | –
22 | C=C=CCNCCCCNCC=C=C.Cl.Cl [MDL 72527, N^1,N^4-di-2,3-butadienyl-1,4-butanediamine dihydrochloride] | – | – | – | reduced neuronal death and retinal degeneration | significantly reduced cancer incidence
